Reference: patent publication US8188073B2, “Benzoxazines and related nitrogen-containing heterobicyclic compounds useful as mineralocorticoid receptor modulating agents” (Mitsubishi Tanabe Pharma Corporation, priority 2006, dated 2012)

Biological target: T1, Aldosterone Receptor (Rattus norvegicus, UniProt P22199)
T1 construct: centrifuged at 100,000×g for 1 hour to give a supernatant as a kidney cytosol fraction; from tissue; host or cells: kidney cytosol of adrenalectomised Sprague-Dawley male rats
T1 sequence (P22199 1-981): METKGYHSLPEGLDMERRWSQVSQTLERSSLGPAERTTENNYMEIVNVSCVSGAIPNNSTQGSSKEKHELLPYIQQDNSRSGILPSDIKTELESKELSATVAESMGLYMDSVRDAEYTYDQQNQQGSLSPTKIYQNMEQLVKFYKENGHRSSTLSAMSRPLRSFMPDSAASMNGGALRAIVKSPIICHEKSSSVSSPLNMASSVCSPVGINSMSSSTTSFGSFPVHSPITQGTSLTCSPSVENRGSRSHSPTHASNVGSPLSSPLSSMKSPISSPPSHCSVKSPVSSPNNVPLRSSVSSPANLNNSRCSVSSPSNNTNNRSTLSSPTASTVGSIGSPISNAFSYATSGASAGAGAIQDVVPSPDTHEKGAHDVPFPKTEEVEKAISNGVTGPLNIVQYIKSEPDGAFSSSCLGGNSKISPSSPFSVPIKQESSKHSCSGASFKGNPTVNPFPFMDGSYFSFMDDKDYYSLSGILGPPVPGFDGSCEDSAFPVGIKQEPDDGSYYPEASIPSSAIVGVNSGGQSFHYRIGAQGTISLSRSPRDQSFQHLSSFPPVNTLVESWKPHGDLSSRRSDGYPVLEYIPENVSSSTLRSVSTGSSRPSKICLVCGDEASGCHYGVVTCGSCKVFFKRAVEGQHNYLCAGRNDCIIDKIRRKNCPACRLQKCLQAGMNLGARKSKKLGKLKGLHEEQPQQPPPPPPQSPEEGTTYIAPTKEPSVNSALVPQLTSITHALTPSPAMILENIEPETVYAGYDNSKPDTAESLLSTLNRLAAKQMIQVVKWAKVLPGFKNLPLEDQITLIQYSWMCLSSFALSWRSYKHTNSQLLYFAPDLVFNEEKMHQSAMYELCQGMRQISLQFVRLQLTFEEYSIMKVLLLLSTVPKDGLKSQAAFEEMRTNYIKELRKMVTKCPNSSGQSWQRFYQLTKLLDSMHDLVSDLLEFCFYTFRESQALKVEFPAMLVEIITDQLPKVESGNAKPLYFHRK
Assay: Aldosterone Receptor Binding Assay (Experiment 1; kidney cytosol fraction, [3H]aldosterone)
Parameters: species or system Sprague-Dawley male rats
Conditions: [3H]aldosterone ca. 2 nM, 4° C. overnight, Ki by Cheng and Prusoff's equation
Procedure: Experiment 1 [Aldosterone Receptor Binding Assay]
(1) Preparation of Kidney Cytosol Fraction:
Kidneys derived from post-adrenalectomy Sprague-Dawley male rats (7 weeks old) were homogenized in the following buffer solution and the homogenate was centrifuged at 100,000×g for 1 hour to give a supernatant as a kidney cytosol fraction (protein concentration: 15 mg/mL) for the present biding assay.
Composition of Buffer solution: 50 mM Tris-HCl (pH 7.5), 250 mM Sucrose, 50 mM Potassium chloride, 3 mM Magnesium chloride, 20 mM Sodium molybdate and 1 mM Mercaptoethanol
A mixture of 5 μL of a solution of each test compound in dimethylsulfoxide, 200 μL of kidney cytosol fraction, 50 μL of physiological saline (or 50 μL of unlabeled aldosterone solution (final concentration: 1 μM) and (50 μL of [^3H]aldosterone solution (ca. 2 nM) was incubated in a test tube at 4° C. overnight. Thereto was added 100 μL of dextrane-coated charcoal/10 mM Tris-HCl buffer and the mixture was incubated at 4° C. for 30 minutes. The reaction mixture was centrifuged at 3000 rpm for 10 minutes and to the supernatant (150 μL) was added 5 mL of a scintillator (Clearsol II, Nakarai Tesque). The radioactivity was measured by a liquid scintilation counter (TRI CARB 2200CA, Packard). […] Moreover, the dissociation constant (Ki) of each test compound was calculated on Cheng and Prusoff's equation (Ki=IC50/(1+[L]/Kd), wherein [L] is [^3H]aldosterone concentration and Kd is the affinity constant of aldosterone).

Row | Ki [nM] | SMILES
1 | < 500 | CS(=O)(=O)Nc1ccc2c(c1)OC(c1ccccc1)C(=O)N2c1ccc(Cl)cc1 (stereo not drawn) [Example 6]
2 | < 500 | CC1(C)Oc2cc(NS(C)(=O)=O)ccc2N(c2ccc(F)cc2)C1=O [Example 9, N-[4-(4-fluorophenyl)-2,2-dimethyl-3-oxo-3,4-dihydro-2H-1,4-benzoxazin-7-yl]methanesulfonamide]
3 | < 500 | CC1(C)Oc2cc(NS(C)(=O)=O)ccc2N(c2ccc(F)c(F)c2)C1=O [Example 10]
4 | < 500 | CC1(C)Oc2cc(NS(C)(=O)=O)ccc2N(c2ccc(Cl)cc2)C1=O [Example 11]
5 | < 500 | CC1(C)Oc2cc(NS(C)(=O)=O)ccc2N(Cc2ccccc2)C1=O [Example 19]
6 | 500 to 1000 | CS(=O)(=O)Nc1ccc2c(c1)OC1(CCC1)C(=O)N2c1ccc(F)cc1 [Example 37]
7 | < 500 | CC1(C)Nc2cc(NS(C)(=O)=O)ccc2N(c2ccc(F)cc2)C1=O [Example 45, N-[1-(4-fluorophenyl)-3,3-dimethyl-2-oxo-1,2,3,4-tetrahydroquinoxalin-6-yl]methanesulfonamide]
8 | < 500 | CC1(C)Oc2cc(NS(C)(=O)=O)ccc2N(c2ccc(F)cc2)C1=S [Example 46, N-[4-(4-fluorophenyl)-2,2-dimethyl-3-thioxo-3,4-dihydro-2H-1,4-benzoxazin-7-yl]methanesulfonamide]
9 | < 500 | Cc1cc(F)ccc1N1C(=O)C(C)(C)Oc2cc(NS(C)(=O)=O)ccc21 [Example 50]
10 | < 500 | COc1cccc(N2C(=O)C(C)(C)Oc3cc(NS(C)(=O)=O)ccc32)c1 [Example 53]
11 | < 500 | COc1cc(N2C(=O)C(C)(C)Oc3cc(NS(C)(=O)=O)ccc32)ccc1F [Example 55, N-[4-(4-Fluoro-3-methoxyphenyl)-2,2-dimethyl-3-oxo-3,4-dihydro-2H-1,4-benzoxazin-7-yl]methanesulfonamide]
12 | < 500 | CC1(C)Oc2cc(NS(C)(=O)=O)ccc2N(c2ccncc2)C1=O [Example 64]
13 | 500 to 1000 | CS(=O)(=O)Nc1ccc2c(c1)OCC(=O)N2c1ccc(F)c(Cl)c1 [Example 67]
14 | < 500 | COc1cc2c(cc1NS(C)(=O)=O)OC(C)(C)C(=O)N2c1ccc(F)cc1 [Example 101, N-[4-(4-Fluorophenyl)-6-methoxy-2,2-dimethyl-3-oxo-3,4-dihydro-2H-1,4-benzoxazin-7-yl]methanesulfonamide]

Biological target: T2, mineralocorticoid receptors (MR) (Rattus norvegicus, UniProt P22199)
T2 construct: mineralocorticoid receptors (MR) derived form rat kidney; from tissue; host or cells: rat kidney
T2 sequence (P22199 1-981): T1 sequence (P22199 1-981)
Assay: binding assay using rat MR and 3H-aldosterone
Conditions: MR derived from rat kidney
Procedure: (§1) Each biding assay was conducted in a similar manner as the procedure described in The Journal of Pharmacology and Experimental Therapeutics, 1987; 240:p. 650-656.
For example, in a binding assay using rat MR and ^3H-aldosterone, which was conducted in accordance with a manner as described in The Journal of Pharmacology and Experimental Therapeutics, 1987; 240: p. […] Therefore, the compound [I] of the present invention is useful as a medicament for prevention or treatment of various diseases associated with the receptor and/or aldosterone, such as cardiovascular diseases including hypertension and heart failure.

Row | Ki [nM] | SMILES
15 | < 10000 | CC1(C)Oc2cc([N+](=O)[O-])c(Cl)cc2N(c2ccc(F)cc2)C1=O [6-chloro-4-(4-fluorophenyl)-2,2-dimethyl-7-nitro-2H-1,4-benzoxizin-3(4H)-one]

Same assay, conditions: rat MR and 3H-aldosterone

Row | IC50 [nM] | SMILES
16 | < 10000 | CC1(C)Oc2cc(NS(C)(=O)=O)ccc2N(c2ccccc2)C1=O [N-(2,2-dimethyl-3-oxo-4-phenyl-3,4-dihydro-2H-1,4-benzoxazin-7-yl)methanesulfonamide]
17 | < 10000 | CS(=O)(=O)Nc1ccc2c(c1)OC(c1ccccc1)C(=O)N2c1ccccc1 (stereo not drawn) [N-(3-oxo-2,4-diphenyl-3,4-dihydro-2H-1,4-benzoxazin-7-yl)methane sulfonamide]

Biological target: T3, glucocorticoid receptors (GR) (Rattus norvegicus, UniProt P06536)
T3 construct: glucocorticoid receptors (GR) derived form rat liver; from tissue; host or cells: rat liver
T3 sequence (P06536 1-795): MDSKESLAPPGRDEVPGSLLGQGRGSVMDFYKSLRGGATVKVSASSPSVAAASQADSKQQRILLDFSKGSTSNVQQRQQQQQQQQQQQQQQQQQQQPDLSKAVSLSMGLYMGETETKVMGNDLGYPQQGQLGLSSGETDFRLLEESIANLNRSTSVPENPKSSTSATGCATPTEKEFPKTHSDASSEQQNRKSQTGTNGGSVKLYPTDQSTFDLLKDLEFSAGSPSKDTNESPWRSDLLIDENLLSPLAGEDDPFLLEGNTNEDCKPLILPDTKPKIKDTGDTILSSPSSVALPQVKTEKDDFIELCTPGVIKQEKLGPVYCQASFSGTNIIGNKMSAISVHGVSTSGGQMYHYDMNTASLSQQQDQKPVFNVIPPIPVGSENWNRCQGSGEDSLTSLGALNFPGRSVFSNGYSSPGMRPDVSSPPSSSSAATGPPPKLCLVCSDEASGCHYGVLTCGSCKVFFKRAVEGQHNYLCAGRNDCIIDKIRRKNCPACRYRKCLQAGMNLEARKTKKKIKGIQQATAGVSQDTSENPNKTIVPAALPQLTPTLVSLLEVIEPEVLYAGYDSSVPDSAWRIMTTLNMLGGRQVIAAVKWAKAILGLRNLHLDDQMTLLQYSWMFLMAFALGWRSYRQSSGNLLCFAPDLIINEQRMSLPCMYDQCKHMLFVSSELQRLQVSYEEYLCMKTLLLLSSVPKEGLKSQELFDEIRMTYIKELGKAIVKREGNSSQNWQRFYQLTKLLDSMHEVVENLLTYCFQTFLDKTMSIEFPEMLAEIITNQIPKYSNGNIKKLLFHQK
Assay: binding assay using glucocorticoid receptors derived from rat liver and 3H-dexamethazone
Conditions: GR derived from rat liver
Procedure: as §1

Row | Ki [nM] | SMILES
18 | < 10000 | Cc1cc(N2C(=O)C(C)(C)Oc3cc([N+](=O)[O-])ccc32)ccc1F [4-(4-fluoro-3-methylphenyl)-2,2-dimethyl-7-nitro-2H-1,4-benzoxizin-3 (4H)-one]
19 | < 10000 | O=C1C(c2ccccc2)Oc2cc([N+](=O)[O-])ccc2N1c1ccc(F)cc1 (stereo not drawn) [4-(4-fluorophenyl)-7-nitro-2-phenyl-2H-1,4-benzoxizin-3(4H)-one]

Row | SMILES | Ki [nM]
20 | Cc1ccc(N2C(=O)C(C)(C)Oc3cc([N+](=O)[O-])ccc32)cc1C(F)(F)F | < 10000

Biological target: T4, androgen receptors (AR) (Rattus norvegicus, UniProt P15207)
T4 construct: androgen receptors (AR) derived form rat prostate; from tissue; host or cells: rat prostate
T4 sequence (P15207 1-902): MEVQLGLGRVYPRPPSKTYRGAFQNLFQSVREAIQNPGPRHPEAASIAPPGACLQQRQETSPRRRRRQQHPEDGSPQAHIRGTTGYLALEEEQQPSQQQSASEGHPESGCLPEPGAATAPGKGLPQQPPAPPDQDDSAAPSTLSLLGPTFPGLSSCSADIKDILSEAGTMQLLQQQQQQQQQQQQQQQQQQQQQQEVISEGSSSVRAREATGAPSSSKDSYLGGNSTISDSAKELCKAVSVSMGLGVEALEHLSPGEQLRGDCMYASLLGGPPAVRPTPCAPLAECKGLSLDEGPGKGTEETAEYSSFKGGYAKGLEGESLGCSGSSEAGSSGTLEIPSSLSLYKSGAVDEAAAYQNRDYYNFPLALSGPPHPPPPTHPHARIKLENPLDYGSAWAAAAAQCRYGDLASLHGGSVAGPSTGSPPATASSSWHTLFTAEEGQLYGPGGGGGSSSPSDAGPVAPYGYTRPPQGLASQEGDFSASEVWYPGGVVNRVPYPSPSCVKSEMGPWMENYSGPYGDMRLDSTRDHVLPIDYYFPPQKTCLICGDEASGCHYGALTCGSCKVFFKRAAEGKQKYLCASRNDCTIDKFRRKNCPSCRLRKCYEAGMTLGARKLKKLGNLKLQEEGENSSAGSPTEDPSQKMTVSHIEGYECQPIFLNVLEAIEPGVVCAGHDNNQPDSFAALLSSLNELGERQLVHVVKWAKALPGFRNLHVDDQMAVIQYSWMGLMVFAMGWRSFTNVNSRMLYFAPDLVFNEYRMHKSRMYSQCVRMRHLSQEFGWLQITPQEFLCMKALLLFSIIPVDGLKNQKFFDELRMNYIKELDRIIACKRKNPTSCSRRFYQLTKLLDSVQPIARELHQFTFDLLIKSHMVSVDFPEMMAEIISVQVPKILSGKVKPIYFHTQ
Assay: binding assay using androgen receptors derived from rat prostate and 3H-methyltrienorone
Conditions: AR derived from rat prostate
Procedure: as §1

Row | Ki [nM] | SMILES
21 | < 10000 | CC1(C)Oc2cc(N)ccc2N(c2ccc(F)c(F)c2)C1=O [7-amino-4-(3,4-difluorophenyl)-2,2-dimethyl-2H-1,4-benzoxizin-3(4H)-one]
